According to US11739098B2 (BRISTOL-MYERS SQUIBB COMPANY, priority 2017, dated 2023):

Key:
Type in all cases: cell-based
human TLR9 = molecular target: T1, human TLR9 (Homo sapiens, UniProt Q9NR96); experiment: TLR9 inhibition reporter assay (HEK-Blue cells, SEAP reporter, ODN2006 stimulation); details: HEK-Blue cells overexpressing human TLR9, SEAP reporter, ODN2006 5 nM
T1 construct: host or cells: HEK-Blue cells (HEK293-derived reporter line)
T1 sequence (Q9NR96 26-1032): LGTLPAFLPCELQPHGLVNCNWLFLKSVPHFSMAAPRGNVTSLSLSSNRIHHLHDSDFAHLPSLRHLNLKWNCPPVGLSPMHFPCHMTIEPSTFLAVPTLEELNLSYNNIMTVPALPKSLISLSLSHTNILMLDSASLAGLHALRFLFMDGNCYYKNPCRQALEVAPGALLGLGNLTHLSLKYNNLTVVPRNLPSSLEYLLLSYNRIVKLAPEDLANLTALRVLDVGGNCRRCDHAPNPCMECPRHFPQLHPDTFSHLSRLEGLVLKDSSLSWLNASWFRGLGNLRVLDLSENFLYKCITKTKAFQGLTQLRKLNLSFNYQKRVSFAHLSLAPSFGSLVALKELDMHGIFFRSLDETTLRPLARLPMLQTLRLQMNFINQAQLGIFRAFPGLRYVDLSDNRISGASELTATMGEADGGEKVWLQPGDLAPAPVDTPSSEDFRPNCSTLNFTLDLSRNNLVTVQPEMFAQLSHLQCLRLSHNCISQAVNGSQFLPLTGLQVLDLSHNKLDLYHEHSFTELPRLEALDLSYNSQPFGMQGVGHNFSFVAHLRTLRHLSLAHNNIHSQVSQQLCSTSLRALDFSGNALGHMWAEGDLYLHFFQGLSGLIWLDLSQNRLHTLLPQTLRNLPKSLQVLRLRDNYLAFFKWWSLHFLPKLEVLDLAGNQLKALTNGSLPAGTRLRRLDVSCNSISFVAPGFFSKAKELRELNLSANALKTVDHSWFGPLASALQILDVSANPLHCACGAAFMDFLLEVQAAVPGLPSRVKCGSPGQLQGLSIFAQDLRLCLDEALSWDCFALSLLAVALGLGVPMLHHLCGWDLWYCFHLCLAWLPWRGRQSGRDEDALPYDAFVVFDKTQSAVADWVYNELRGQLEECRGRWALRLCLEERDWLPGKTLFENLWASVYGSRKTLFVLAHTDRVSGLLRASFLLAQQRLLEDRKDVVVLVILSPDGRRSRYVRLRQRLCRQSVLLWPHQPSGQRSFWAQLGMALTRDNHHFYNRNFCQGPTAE
Summary of the method: (§1)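 Agonists (final): TLR7 gardiquimod 7.5 μM; TLR8 R848 15.9 μM; TLR9 ODN2006 5 nM. HEK-Blue reporter cells, 30 min RT compound pre-incubation, 0.05 nM–50 μM dose range, 22 h at 37 °C, colorimetric SEAP detection medium. % inhibition relative to agonist+DMSO and known-inhibitor wells.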

human TLR7 = molecular target: T2, human TLR7 (Homo sapiens, UniProt Q9NYK1); experiment: TLR7 inhibition reporter assay (HEK-Blue cells, SEAP reporter, gardiquimod stimulation); details: HEK-Blue cells overexpressing human TLR7, SEAP reporter, gardiquimod 7.5 μM
T2 construct: host or cells: HEK-Blue cells (HEK293-derived reporter line)
T2 sequence (Q9NYK1 27-1049): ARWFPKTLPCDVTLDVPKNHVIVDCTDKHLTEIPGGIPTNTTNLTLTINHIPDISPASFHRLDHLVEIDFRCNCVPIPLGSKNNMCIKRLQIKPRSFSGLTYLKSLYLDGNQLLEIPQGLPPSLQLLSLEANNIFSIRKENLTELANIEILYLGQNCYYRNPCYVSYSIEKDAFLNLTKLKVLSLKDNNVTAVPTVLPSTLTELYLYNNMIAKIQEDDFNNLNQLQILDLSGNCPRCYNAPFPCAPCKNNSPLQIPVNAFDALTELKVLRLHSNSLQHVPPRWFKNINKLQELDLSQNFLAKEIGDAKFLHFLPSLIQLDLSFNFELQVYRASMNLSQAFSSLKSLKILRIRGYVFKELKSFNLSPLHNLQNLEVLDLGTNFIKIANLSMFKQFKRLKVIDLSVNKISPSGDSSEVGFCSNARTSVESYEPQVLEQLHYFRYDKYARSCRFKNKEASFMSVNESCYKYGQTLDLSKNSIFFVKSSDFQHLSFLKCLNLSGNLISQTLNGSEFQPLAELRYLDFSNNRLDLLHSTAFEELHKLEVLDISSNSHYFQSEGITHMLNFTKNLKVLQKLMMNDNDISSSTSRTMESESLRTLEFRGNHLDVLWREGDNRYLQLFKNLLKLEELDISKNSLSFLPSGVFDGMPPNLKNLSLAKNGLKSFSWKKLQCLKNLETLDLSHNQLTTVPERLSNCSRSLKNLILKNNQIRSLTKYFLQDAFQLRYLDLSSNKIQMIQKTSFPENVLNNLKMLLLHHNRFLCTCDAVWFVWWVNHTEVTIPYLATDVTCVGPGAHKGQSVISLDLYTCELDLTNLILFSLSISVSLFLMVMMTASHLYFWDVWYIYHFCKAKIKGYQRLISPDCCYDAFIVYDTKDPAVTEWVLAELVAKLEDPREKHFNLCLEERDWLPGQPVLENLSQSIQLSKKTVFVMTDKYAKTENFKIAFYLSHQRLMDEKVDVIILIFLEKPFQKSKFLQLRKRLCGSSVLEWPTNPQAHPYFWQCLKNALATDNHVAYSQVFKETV
Summary of the method: as §1

human TLR8 = molecular target: T3, human TLR8 (Homo sapiens, UniProt Q9NR97); experiment: TLR8 inhibition reporter assay (HEK-Blue cells, SEAP reporter, R848 stimulation); details: HEK-Blue cells overexpressing human TLR8, SEAP reporter, R848 15.9 μM
T3 construct: host or cells: HEK-Blue cells (HEK293-derived reporter line)
T3 sequence (Q9NR97 27-1041): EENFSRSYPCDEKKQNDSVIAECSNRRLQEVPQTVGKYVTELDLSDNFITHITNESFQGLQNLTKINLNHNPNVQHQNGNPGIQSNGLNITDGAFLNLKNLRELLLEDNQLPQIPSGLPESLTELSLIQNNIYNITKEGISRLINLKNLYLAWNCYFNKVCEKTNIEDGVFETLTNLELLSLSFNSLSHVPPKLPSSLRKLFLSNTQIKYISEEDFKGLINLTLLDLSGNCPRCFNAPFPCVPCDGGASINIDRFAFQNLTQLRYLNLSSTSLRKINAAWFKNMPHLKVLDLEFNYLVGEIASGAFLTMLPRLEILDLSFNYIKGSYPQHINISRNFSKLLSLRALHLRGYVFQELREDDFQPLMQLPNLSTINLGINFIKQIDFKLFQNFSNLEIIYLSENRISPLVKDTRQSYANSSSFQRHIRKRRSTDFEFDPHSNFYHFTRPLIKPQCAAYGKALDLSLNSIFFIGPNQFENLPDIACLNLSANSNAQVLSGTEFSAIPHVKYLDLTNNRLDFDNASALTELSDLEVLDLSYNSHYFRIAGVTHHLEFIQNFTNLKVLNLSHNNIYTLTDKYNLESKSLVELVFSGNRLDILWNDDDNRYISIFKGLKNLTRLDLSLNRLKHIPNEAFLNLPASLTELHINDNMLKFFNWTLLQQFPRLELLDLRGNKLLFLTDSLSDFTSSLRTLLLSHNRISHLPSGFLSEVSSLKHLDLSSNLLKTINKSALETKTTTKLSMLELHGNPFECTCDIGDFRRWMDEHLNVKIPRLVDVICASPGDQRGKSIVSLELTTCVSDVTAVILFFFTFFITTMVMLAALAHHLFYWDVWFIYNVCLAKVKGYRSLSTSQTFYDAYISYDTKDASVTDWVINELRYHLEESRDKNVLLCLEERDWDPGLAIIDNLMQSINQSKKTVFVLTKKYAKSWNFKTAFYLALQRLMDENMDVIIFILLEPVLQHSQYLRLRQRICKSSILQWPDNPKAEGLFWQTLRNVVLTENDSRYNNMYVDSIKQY
Summary of the method: as §1

Structure (SMILES)	IC50 (human TLR9) [nM]	IC50 (human TLR7) [nM]	IC50 (human TLR8) [nM]
CC(C)c1c(-c2ccn3nccc3n2)[nH]c2ccc(C3CCN(CC(=O)N(C)C)CC3)cc12 [Example 425, 2-(4-(3-isopropyl-2-(pyrazolo[1,5-a]pyrimidin-5-yl)-1H-indol-5-yl)piperidin-1-yl)-N,N-dimethylacetamide]	1000 to 50000	100 to 1000	100 to 1000
CNCCN1CCC(c2ccc3[nH]c(-c4ccnc5[nH]ncc45)c(C(C)C)c3c2)C(F)C1 (stereo not drawn) [Example 675, 2-(3-fluoro-4-(3-isopropyl-2-(1H-pyrazolo[3,4-b]pyridin-4-yl)-1H-indol-5-yl)piperidin-1-yl)-N-methylethan-1-amine]	100 to 1000	< 100	< 100
CC(C)c1c(-c2cn3cnnc3c(=O)n2C)[nH]c2ccc(C3CCNCC3)cc12 [Example 237, 6-(3-isopropyl-5-(piperidin-4-yl)-1H-indol-2-yl)-7-methyl-[1,2,4]triazolo[4,3-a]pyrazin-8(7H)-one]	1000 to 50000	> 3130	> 3130
Cc1cc(-c2[nH]c3ccc(C4CCNCC4)cc3c2C(C)C)c2ccccc2n1 [Example 104, 4-(3-isopropyl-5-(piperidin-4-yl)-1H-indol-2-yl)-2-methylquinoline]	1000 to 50000	< 100	< 100
Cc1nc2c(-c3[nH]c4ccc(C5CCN(CC(C)(C)O)CC5)cc4c3C(C)C)ccc(C)n2n1 [Example 768, 1-(4-(2-(2,5-dimethyl-[1,2,4]triazolo[1,5-a]pyridin-8-yl)-3-isopropyl-1H-indol-5-yl)piperidin-1-yl)-2-methylpropan-2-ol]	1000 to 50000	> 3130	1000 to 50000
Cc1cc(-c2[nH]c3ccc(C4CCNCC4)cc3c2C(C)C)cc2ncc(O)nc12 [Example 87, 6-(3-isopropyl-5-(piperidin-4-yl)-1H-indol-2-yl)-8-methylquinoxalin-2-ol]	100 to 1000	< 100	< 100
FC(F)Cc1c(-c2ccn3ccnc3c2)[nH]c2ccc(C3CCNCC3)cc12 [Example 189, 7-(3-(2,2-difluoroethyl)-5-(piperidin-4-yl)-1H-indol-2-yl)imidazo[1,2-a]pyridine]	< 100	< 100	100 to 1000
CC(C)c1c(-c2ccc(C#N)c3ncccc23)[nH]c2ccc(C3CCN(CC(C)(C)O)CC3)cc12 [Example 766, 5-(5-(1-(2-hydroxy-2-methylpropyl)piperidin-4-yl)-3-isopropyl-1H-indol-2-yl)quinoline-8-carbonitrile]	1000 to 50000	< 100	< 100
Cc1cc2nccn2cc1-c1[nH]c2ccc(C3CCNCC3)cc2c1C(C)C [Example 110, 6-(3-isopropyl-5-(piperidin-4-yl)-1H-indol-2-yl)-7-methylimidazo[1,2-a]pyridine]	100 to 1000	< 100	< 100
Cc1cc(-c2[nH]c3ccc(C4CCN(CCC(F)(F)F)CC4)cc3c2C(C)C)cn2nnnc12 [Example 962, 6-(3-isopropyl-5-(1-(3,3,3-trifluoropropyl)piperidin-4-yl)-1H-indol-2-yl)-8-methyltetrazolo[1,5-a]pyridine]	> 50000	< 100	< 100
CC(C)c1c(-c2ccnc3[nH]ncc23)[nH]c2ccc(C3CCN(CC4CCN(C(C)C)CC4)CC3)c(F)c12 [Example 967, 4-(4-fluoro-3-isopropyl-5-(1-((1-isopropylpiperidin-4-yl)methyl)piperidin-4-yl)-1H-indol-2-yl)-1H-pyrazolo[3,4-b]pyridine]	1000 to 50000	100 to 1000	100 to 1000
Cc1c(-c2[nH]c3ccc(C4CCN(CC(=O)N(C)C)CC4)cc3c2C(C)C)cn2ccnc2c1C [Example 412, 2-(4-(2-(7,8-dimethylimidazo[1,2-a]pyridin-6-yl)-3-isopropyl-1H-indol-5-yl)piperidin-1-yl)-N,N-dimethylacetamide]	100 to 1000	< 100	< 100
CCc1c(-c2cnc3ncccn23)[nH]c2ccc(C3CCNCC3)cc12 [Example 29, 3-(3-ethyl-5-(piperidin-4-yl)-1H-indol-2-yl) imidazo[1,2-a]pyrimidine]	100 to 1000	100 to 1000	< 100
CCN(CC)C(=O)C1CCCN(CC(=O)N2CCC(c3ccc4[nH]c(-c5ccnc6[nH]ccc56)c(C(C)C)c4c3)CC2)C1 (stereo not drawn) [Example 568, N,N-diethyl-1-(2-(4-(3-isopropyl-2-(1H-pyrrolo[2,3-b]pyridin-4-yl)-1H-indol-5-yl)piperidin-1-yl)-2-oxoethyl) piperidine-3-carboxamide]	1000 to 50000	< 100	< 100
CC(C)c1c(-c2cn3ccnc3cc2Cl)[nH]c2ccc(C3CCNCC3)cc12 [Example 128, 7-chloro-6-(3-isopropyl-5-(piperidin-4-yl)-1H-indol-2-yl)imidazo[1,2-a]pyridine]	1000 to 50000	< 100	< 100
